These are literature values, as cited in patent publication US20140005280A1, “CARBOXYMETHYL STARCH AND CHITOSAN POLYELECTROLYTE COMPLEXES” (4413261 Canada Inc. (Spencer Canada), priority 2011, published 2014).

For this series the following is noted: US Pharmacopeia, 2000.

SMILES strings stand for the structures.

`CC(=O)Oc1ccccc1C(=O)O` [aspirin, acetylsalicylic acid]: the solubility result is “slightly soluble in water”.
